In patent US6093838A, “Amines substituted with a dihydro-benzofuranyl or with a dihydro-isobenzofuranyl group, an aryl or heteroaryl group and an alkyl group, having retinoid-like biological activity” (Allergan Sales, Inc., priority 1999, dated 2000):

Key:
RARβ = target: T1, RARβ (Homo sapiens, UniProt P10826); experiment: ligand binding assay, RARβ; conditions: read-out: RAR Bind. Ki β
T1 sequence (P10826 1-448 isoform P10826-2): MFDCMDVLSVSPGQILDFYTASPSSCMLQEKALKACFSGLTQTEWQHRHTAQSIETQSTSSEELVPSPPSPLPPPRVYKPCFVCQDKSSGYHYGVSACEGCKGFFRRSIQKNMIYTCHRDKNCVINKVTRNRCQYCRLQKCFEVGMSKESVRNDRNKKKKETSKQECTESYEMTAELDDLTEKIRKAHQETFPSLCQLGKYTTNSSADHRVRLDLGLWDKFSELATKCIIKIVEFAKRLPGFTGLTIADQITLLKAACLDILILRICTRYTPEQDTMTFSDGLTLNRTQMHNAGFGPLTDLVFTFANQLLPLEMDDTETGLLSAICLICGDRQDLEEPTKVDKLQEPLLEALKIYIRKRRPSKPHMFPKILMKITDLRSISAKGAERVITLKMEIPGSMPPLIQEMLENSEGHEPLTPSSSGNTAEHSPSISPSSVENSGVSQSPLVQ
Excerpt: (§1) Other assays described below, measure the ability of the compounds of the present invention to bind to, and/or activate various retinoid receptor subtypes. When in these assays a compound binds to a given receptor subtype and activates the transcription of a reporter gene through that subtype, then the compound is considered an agonist of that receptor subtype. […] In the below described assays the ability of the compounds to bind to RARα, RARβ, RARγ, RXRα, RXRβ and RXRγ receptors, and the ability or inability of the compounds to activate transcription of a reporter gene through these receptor subtypes can be tested. […] However, some of the compounds of the invention may behave as retinoid antagonists or partial antagonists and/or as inverse agonists. Because of the complex distribution of the different retinoid receptors in various organs of the mammalian body partial agonists and partial antagonists and compounds which have the characteristics of both may lend themselves to particularly useful therapeutic applications and may avoid serious side effects of conventional retinoid drugs.
(§2) A holoreceptor transactivation assay and a ligand binding assay which measure the antagonist/agonist like activity of the compounds of the invention, or their ability to bind to the several retinoid receptor subtypes, respectively, are described in published PCT Application No. WO WO93/11755 (particularly on pages 30-33 and 37-41) published on Jun. 24, 1993, the specification of which is also incorporated herein by reference. A detailed experimental procedure for holoreceptor transactivations has been described by Heyman et al. Cell 68, 397-406, (1992); Allegretto et al. J. Biol. Chem. 268, 26625-26633, and Mangelsdorf et al. The Retinoids: Biology, Chemistry and Medicine, pp 319-349, Raven Press Ltd., New York, which are expressly incorporated herein by reference. The results obtained in this assay are expressed in EC50 numbers, as they are also in the chimeric receptor transactivation assay. The results of ligand binding assay are expressed in Kd numbers. (See Cheng et al. Biochemical Pharmacology Vol. 22 pp 3099-3108, expressly incorporated herein by reference.)
(§3) Table 1 discloses the activity of certain exemplary compounds of the invention in the above-described chimeric receptor transactivation assay, holoreceptor transactivation assay and a ligand binding assays. Particularly, the transactivation data pertaining to RAR receptors were obtained in the chimeric assay, and the data pertaining to transactivation of RXR receptors were obtained in the holoreceptor transactivation assay.

RARγ = target: T2, RARγ (Homo sapiens, UniProt P13631); experiment: ligand binding assay, RARγ; conditions: read-out: RAR Bind. Ki γ
T2 sequence (P13631 1-454): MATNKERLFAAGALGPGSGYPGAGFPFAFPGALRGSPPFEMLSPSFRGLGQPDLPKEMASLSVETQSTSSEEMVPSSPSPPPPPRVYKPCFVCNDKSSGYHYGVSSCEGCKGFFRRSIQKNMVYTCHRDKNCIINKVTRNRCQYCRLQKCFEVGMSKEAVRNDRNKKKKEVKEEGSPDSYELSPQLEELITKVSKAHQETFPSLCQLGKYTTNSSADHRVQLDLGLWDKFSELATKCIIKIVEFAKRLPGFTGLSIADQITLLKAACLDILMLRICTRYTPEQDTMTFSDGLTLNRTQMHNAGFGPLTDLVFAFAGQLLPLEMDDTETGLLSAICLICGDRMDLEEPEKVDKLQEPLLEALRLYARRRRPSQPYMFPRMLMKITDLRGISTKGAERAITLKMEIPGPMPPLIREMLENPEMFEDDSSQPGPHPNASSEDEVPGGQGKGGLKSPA
Excerpt: as §1, §2, §3

RXRβ [1] = experiment: ligand binding assay, RXRβ; conditions: read-out: RXR Bind Ki β
Excerpt: as §1, §2, §3

RXRα [2] = target: T3, RXRα (Homo sapiens, UniProt P19793); experiment: ligand binding assay, RXRα; conditions: read-out: RXR Bind Ki α
T3 construct: expressed in transfected cells
T3 sequence (P19793 1-462): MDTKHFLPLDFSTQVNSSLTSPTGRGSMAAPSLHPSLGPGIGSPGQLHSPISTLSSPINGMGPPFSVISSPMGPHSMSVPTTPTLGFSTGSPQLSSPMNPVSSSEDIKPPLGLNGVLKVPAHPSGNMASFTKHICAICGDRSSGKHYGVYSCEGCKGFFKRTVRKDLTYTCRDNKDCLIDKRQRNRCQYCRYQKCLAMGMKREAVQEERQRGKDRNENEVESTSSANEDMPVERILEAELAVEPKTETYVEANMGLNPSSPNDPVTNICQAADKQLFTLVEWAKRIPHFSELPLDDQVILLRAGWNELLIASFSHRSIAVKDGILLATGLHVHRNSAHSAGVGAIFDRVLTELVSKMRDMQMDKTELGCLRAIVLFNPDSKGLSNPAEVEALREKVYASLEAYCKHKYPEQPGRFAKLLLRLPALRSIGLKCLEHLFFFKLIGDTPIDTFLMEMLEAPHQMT
Excerpt: as §1, §2, §3

RXRγ [3] = experiment: ligand binding assay, RXRγ; conditions: read-out: RXR Bind Ki γ
Excerpt: as §1, §2, §3

RXRα [4] = target: T3, RXRα; experiment: holoreceptor transactivation assay, RXRα; type: cell-based; conditions: for EC50: holoreceptor transactivation, RXRα, read-out: RXR Trans. EC50 α; for Emax: relative to 10^-6 M cyclopropyl penta-2,4-dienoic acid reference (RXRs), read-out: % efficacy (RXRα transactivation)
Excerpt: as §1, §2, §3

RARα = target: T4, RARα (Homo sapiens, UniProt P10276); experiment: ligand binding assay, RARα; conditions: read-out: RAR Bind. Ki α
T4 sequence (P10276 1-462): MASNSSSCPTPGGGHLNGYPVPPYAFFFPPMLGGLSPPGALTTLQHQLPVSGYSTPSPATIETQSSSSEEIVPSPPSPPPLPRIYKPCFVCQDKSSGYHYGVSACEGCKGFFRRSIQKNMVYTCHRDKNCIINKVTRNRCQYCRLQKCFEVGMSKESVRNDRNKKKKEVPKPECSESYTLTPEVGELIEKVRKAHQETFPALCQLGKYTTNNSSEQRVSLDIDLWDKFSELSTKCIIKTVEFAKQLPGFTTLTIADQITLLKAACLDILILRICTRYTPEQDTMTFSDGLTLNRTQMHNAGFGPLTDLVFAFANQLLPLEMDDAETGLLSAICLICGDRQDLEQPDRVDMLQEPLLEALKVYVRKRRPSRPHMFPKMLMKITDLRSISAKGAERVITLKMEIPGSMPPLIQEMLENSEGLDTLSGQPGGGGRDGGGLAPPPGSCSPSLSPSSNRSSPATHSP
Excerpt: as §1, §2, §3

RXRγ [5] = target: T5, RXRγ (Mus musculus, UniProt P28705); experiment: holoreceptor transactivation assay, RXRγ; type: cell-based; conditions: for EC50: holoreceptor transactivation, RXRγ, read-out: RXR Trans. EC50 γ; for Emax: relative to 10^-6 M cyclopropyl penta-2,4-dienoic acid reference (RXRs), read-out: % efficacy (RXRγ transactivation)
T5 construct: expressed in transfected cells
T5 sequence (P28705 1-463): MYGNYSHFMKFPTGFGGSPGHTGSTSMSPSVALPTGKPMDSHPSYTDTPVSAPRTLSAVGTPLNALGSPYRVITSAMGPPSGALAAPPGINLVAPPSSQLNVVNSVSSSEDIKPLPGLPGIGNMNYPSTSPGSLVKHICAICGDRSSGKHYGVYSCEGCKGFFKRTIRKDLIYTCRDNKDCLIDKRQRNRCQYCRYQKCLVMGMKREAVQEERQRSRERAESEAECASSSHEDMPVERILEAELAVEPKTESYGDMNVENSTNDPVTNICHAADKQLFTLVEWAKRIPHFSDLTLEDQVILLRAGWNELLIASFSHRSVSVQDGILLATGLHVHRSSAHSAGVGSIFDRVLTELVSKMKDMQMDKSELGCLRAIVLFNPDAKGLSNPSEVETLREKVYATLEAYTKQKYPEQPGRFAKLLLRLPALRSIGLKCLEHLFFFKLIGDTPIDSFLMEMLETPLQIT
Excerpt: as §1, §2, §3

RXRβ [6] = target: T6, RXRβ (Mus musculus, UniProt P28704); experiment: holoreceptor transactivation assay, RXRβ; type: cell-based
T6 construct: expressed in transfected cells
T6 sequence (P28704 1-520): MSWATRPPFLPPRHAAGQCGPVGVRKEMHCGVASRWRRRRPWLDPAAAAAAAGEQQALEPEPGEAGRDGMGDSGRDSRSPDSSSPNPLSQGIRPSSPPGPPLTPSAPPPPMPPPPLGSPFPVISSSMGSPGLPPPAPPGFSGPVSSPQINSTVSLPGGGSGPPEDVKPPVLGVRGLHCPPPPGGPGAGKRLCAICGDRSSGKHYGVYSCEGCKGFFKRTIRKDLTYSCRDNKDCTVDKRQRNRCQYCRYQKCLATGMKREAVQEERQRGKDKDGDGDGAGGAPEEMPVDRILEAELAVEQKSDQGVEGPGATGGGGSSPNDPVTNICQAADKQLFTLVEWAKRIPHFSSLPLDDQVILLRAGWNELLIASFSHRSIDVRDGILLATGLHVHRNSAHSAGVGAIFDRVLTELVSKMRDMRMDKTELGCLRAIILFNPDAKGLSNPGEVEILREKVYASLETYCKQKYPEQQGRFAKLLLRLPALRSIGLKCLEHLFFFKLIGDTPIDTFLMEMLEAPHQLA
Excerpt: as §1, §2, §3

| Structure (SMILES) | Ki (RARβ) [µM] | Ki (RARγ) [µM] | Ki (RXRβ [1]) [µM] | Ki (RXRα [2]) [µM] | Ki (RXRγ [3]) [µM] | EC50 (RXRα [4]) [µM] | Emax (RXRα [4]) [%] | Ki (RARα) [µM] | EC50 (RXRγ [5]) [µM] | Emax (RXRγ [5]) [%] | EC50 (RXRβ [6]; holoreceptor transactivation, RXRβ, read-out: RXR Trans. EC50 β) [µM] | Emax (RXRβ [6]; relative to 10^-6 M cyclopropyl penta-2,4-dienoic acid reference (RXRs), read-out: % efficacy (RXRβ transactivation)) [%] |
| --- | --- | --- | --- | --- | --- | --- | --- | --- | --- | --- | --- | --- |
| Cc1cc(N(c2ccc(C(=O)O)cc2)C(C)C)cc2c1OCC2(C)C [Compound 41, 4-[Isopropyl-(3,3,7-trimethyl-2,3-dihydro-benzofuran-5-yl)-amino]-benzoic acid] | > 30 | > 30 | > 100 | 9.2 | > 100 | 1 | 75 | > 30 | – | – | – | – |
| CCc1cc(N(C)c2ccc(C(=O)O)cc2)cc2c1OCC2(C)C [Compound 28, 4-[Methyl-(7-ethyl-3,3-dimethyl-2,3-dihydro-benzofuran-5-yl)-amino]-benzoicacid] | > 10 | 4.5 | > 10 | > 10 | > 10 | > 1 | 25 | 9.4 | > 1 | 15 | – | – |
| CCN(c1ccc(C(=O)O)cc1)c1cc2c(c(C(C)C)c1C)OCC2(C)C [Compound 70, 4-[Ethyl-(7-isopropyl-3,3,6-trimethyl-2,3-dihydro-benzofuran-5-yl)-amino]-benzoic acid] | – | – | – | – | – | 0.011 | 119 | – | 0.018 | 120 | 0.073 | 113 |
| Cc1cc(N(C)c2ccc(C(=O)O)cc2)cc2c1OCC2(C)C [Compound 26, 4-[Methyl-(3,3,7-trimethyl-2,3-dihydro-benzofuran-5-yl)-amino]-benzoic acid] | > 30 | 6.7 | > 100 | 10 | > 100 | – | – | > 30 | – | – | – | – |
